Key:
[1] = tested on: HIV-1 infection of TZM-bl cells; experiment: HIV-1 infectivity enhancement assay, β-galactosidase luminescence; format: cell-based; conditions: for Absolute Infectivity / RLU /s (Feb2021): figures match the 1.3 µM column; for n-fold to virus (Feb2021): infectivity relative to virus only; for Log10 of Rel to EFC (Feb2021): log10 of infectivity relative to EF-C; for Absolute Infectivity / RLU /s (Feb2021) / n-fold to virus (Feb2021) / Log10 of Rel to EFC (Feb2021) / Rel-to EFC (Feb-2021): Feb2021; for Rel-to EFC (Feb-2021): n-fold infectivity relative to EF-C; for Log10 Inf. rel. to EF-C: log10 of HIV-1 infection of TZM-bl cells relative to EF-C, Fig S15 source data, asymmetric std dev errors; for Rel-to EFC / n-fold to virus: Fig S8 panels B, D; for Rel-to EFC: infectivity enhancement relative to EF-C; for n-fold to virus: infectivity n-fold relative to virus alone; for Log10 Infection Rel EF-C: log10 of infection relative to EF-C, Figure 7B; for Inf. rel. EF-C: n-fold infection vs virus only, relative to that of EF-C, 1.3 µM peptide
[2] = format: physicochemical; design: key to Fibril / Fibril Formation / TEM 2cat / Fibril: 1 = fibrils present; 0 non-fibrillar structures; conditions: for Fibril / Fibril Formation: TEM, 1 mg/mL, uranyl acetate stain, qualitative
[3] = Turbidity, derived count rate of scattered light; format: physicochemical; conditions: for Zeta Count Rate Category: category 1 / 0, no key given; for Zeta Count Rate / kcps / Count Rate: derived count rate of scattered light; for Log Count Rate: log of derived count rate; for Count Rate: turbidity; for Count Rate / kcps: derived count rate of scattered light at 633 nm, 173°, from zeta-potential measurement, 0.1 mg/mL in 1 mM KCl after 1 d at 1 mg/mL in PBS, turbidity / microscopic aggregation, mean of triplicate
How it was run: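 One-day room-temperature aggregation at 1 mg/mL in PBS (pH 7.4) preceded measurement; samples then went into 1 mM KCl. Triplicates per sample, two independent experiments averaged.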

[4] = infectivity class (low / medium / high) of the peptide in the sequence-pattern analysis, Fig. S22-A4, class limits not given
[5] = infectivity class (low / medium / high) of each library peptide, main list in c1-c6, same classes repeated in sub-lists of sequences containing the hydrophobicity/charge patterns P+,H0,P+,H0,P0,H0,P0, P+,H0,P0,H0,P0,H0,P0, P+,H0,P0,H0
[6] = Fig S8 panels A, C, asymmetric log errors

Which results are given for HHHHKAKAKAKAWWWW [TM8]?
Absolute Infectivity / RLU /s (Feb2021) [1]: 3233 RLU /s; n-fold to virus (Feb2021) [1]: 3.76; Log10 of Rel to EFC (Feb2021) [1]: -1.048; Rel-to EFC (Feb-2021) [1]: 0.08948; infectivity [1, 4]: low; Log10 Inf. rel. to EF-C [1]: -1.048; TEM: 1= fibrils, 0= aggregates (micelle), 0.5 = aggregates and fibrils, -1 = nothing obersved, STD prep [2]: 0.5; Zeta Count Rate Category [3]: 1; Zeta Count Rate / kcps [3]: 658.9 kcps

For HHHHKAKAKAKAYYYY [TM10], which “Absolute Infectivity / RLU /s (Feb2021)” value [1] is on record?
The value was 203.3 RLU /s.

And the “n-fold to virus (Feb2021)” value [1]?
Its value is 0.5495.

And the “Log10 of Rel to EFC (Feb2021)” value [1]?
Its value is -1.883.

What about the “Rel-to EFC (Feb-2021)” value [1] of the same substance?
Its value is 0.01308.

And the infectivity [1, 4]?
The infectivity was “low”.

And the “Log10 Inf. rel. to EF-C” value [1]?
Its value is -1.883.

And the “TEM: 1= fibrils, 0= aggregates (micelle), 0.5 = aggregates and fibrils, -1 = nothing obersved, STD prep” value (“TEM: 1= fibrils, 0= aggregates (micelle)” below) [2]?
Its value is 0.

What about the “Zeta Count Rate Category” value [3] of the same substance?
Its value is 1.

What about the “Zeta Count Rate / kcps” value [3] of the same substance?
The value was 240.9 kcps.

With HHHHKIKIQINMYYYY [TM16] as the substance, how does the “Absolute Infectivity / RLU /s (Feb2021)” value [1] read?
The value was 22408.88889 RLU /s.

What about the “n-fold to virus (Feb2021)” value [1] of the same substance?
The value was 46.56.

And the “Log10 of Rel to EFC (Feb2021)” value [1]?
Its value is 0.04454.

And the “Rel-to EFC (Feb-2021)” value [1]?
Its value is 1.108.

What about the “Rel-to EFC” value [1] of the same substance?
The value was 1.108.

And the n-fold to virus [1]?
The n-fold to virus was 46.56.

And the infectivity [1, 5]?
Its infectivity is “high”.

What about the infectivity [1, 4] of the same substance?
The infectivity was “high”.

What about the “Log10 Inf. rel. to EF-C” value [1] of the same substance?
Its value is 0.04454.

And the “TEM: 1= fibrils, 0= aggregates (micelle)” value [2]?
The value was 1.

And the “Log Count Rate” value [3, 6]?
Its value is 3.753.

What about the “Log Count Rate” value ([3]; Fig S8 panels B, D) of the same substance?
Its value is 3.753.

What about the “Count Rate” value ([3]; Fig S8 panels B, D) of the same substance?
Its value is 5658.77.

What about the “Zeta Count Rate Category” value [3] of the same substance?
Its value is 1.

What about the “Zeta Count Rate / kcps” value [3] of the same substance?
Its value is 5659 kcps.

For HIHIQIC [CN12], which “Absolute Infectivity / RLU /s (Feb2021)” value [1] is on record?
Its value is 4621 RLU /s.

What about the “n-fold to virus (Feb2021)” value [1] of the same substance?
Its value is 11.38.

What about the “Log10 of Rel to EFC (Feb2021)” value [1] of the same substance?
Its value is -0.5672.

And the “Rel-to EFC (Feb-2021)” value [1]?
Its value is 0.2709.

And the “Rel-to EFC” value [1]?
Its value is 0.2709.

And the n-fold to virus [1]?
Its n-fold to virus is 11.38.

And the infectivity [1, 5]?
The infectivity was “medium”.

What about the “Log10 Inf. rel. to EF-C” value [1] of the same substance?
Its value is -0.5672.

What about the “TEM: 1= fibrils, 0= aggregates (micelle)” value [2] of the same substance?
Its value is 1.

And the “Log Count Rate” value [3, 6]?
Its value is 2.416.

And the “Log Count Rate” value ([3]; Fig S8 panels B, D)?
Its value is 2.416.

And the “Count Rate” value ([3]; Fig S8 panels B, D)?
The value was 260.57.

And the “Zeta Count Rate Category” value [3]?
The value was 1.

What about the “Zeta Count Rate / kcps” value [3] of the same substance?
The value was 260.6 kcps.

Which “Absolute Infectivity / RLU /s (Feb2021)” value [1] does the source give for HLHLPLL [CN14] here?
Its value is 133.3 RLU /s.

And the “n-fold to virus (Feb2021)” value [1]?
The value was 0.4211.

And the “Log10 of Rel to EFC (Feb2021)” value [1]?
The value was -1.999.

What about the “Rel-to EFC (Feb-2021)” value [1] of the same substance?
The value was 0.01002.

What about the infectivity [1, 5] of the same substance?
The infectivity was “low”.

What about the “Log10 Inf. rel. to EF-C” value [1] of the same substance?
Its value is -1.9991.

What about the “TEM: 1= fibrils, 0= aggregates (micelle)” value [2] of the same substance?
The value was 0.5.

What about the “Zeta Count Rate Category” value [3] of the same substance?
Its value is 1.

And the “Zeta Count Rate / kcps” value [3]?
The value was 200 kcps.

For IFQINS [reference compound], which “Log10 Infection Rel EF-C” value [1] is on record?
The value was -1.21.

What about the “Inf. rel. EF-C” value [1] of the same substance?
Its value is 0.06.

What about the “Fibril / Fibril Formation” value [2] of the same substance?
The value was 1.

And the “Count Rate / kcps” value [3]?
Its value is 36 kcps.

With IIIK [reference compound] as the substance, how does the “Log10 Infection Rel EF-C” value [1] read?
Its value is -1.29.

What about the “Inf. rel. EF-C” value [1] of the same substance?
The value was 0.05.

And the “Fibril / Fibril Formation” value [2]?
Its value is 0.

What about the “Count Rate / kcps” value [3] of the same substance?
Its value is 26 kcps.

For IIIQGK [reference compound], which “Log10 Infection Rel EF-C” value [1] is on record?
The value was -1.21.

And the “Inf. rel. EF-C” value [1]?
Its value is 0.06.

And the “Fibril / Fibril Formation” value [2]?
Its value is 0.

What about the “Count Rate / kcps” value [3] of the same substance?
Its value is 10 kcps.

From publication PMC10447463, “Data-mining unveils structure–property–activity correlation of viral infectivity enhancing self-assembling peptides” (Nature Communications, 2023)
